System: A549 lung cancer cell xenografts in zebrafish
Details: 0.5 μM, bright field images
Description: First, zebrafish embryos were divided into 7 groups at an average of 65 embryos per group. […] Briefly, live human lung cancer cells (A549) were labeled with CM-DiI (red) and only live cells were transplanted via injection into the perivitelline space of 30 zebrafish embryos 24 hours post fertilization (hpf) (Sittaramane et al., 2015; Veinotte et al., 2014; Xie et al., 2015). Tumor inoculated zebrafish embryos were allowed to grow for one day till 48 hpf. This allows for establishment of the cancer cells in the host zebrafish embryos.

## Cc1cc(C)c(-n2c3c([n+](-c4c(C)cc(C)cc4C)[c]2[Au-][c]2n(-c4c(C)cc(C)cc4C)c4c([n+]2-c2c(C)cc(C)cc2C)C(=O)c2ccccc2C4=O)C(=O)c2ccccc2C3=O)c(C)c1.[Cl][Ag-][Cl] [Compound 1, [Bis(1,3-dimesityl-4,5-naphthoquino-imidazol-2-ylidene)-gold(I)] [Silver(I)dichloride]]
  non-specific cell death in the developing zebrafish larvae: no non-specific cell death

From US11332483B2, “Naphthoquinone containing gold carbene complexes and methods of uses thereof” (BOARD OF REGENTS, THE UNIVERSITY OF TEXAS SYSTEM, priority 2017, dated 2022)
